Measurements: publication PMC10104254, “Development of a novel angiotensin converting enzyme 2 stimulator with broad implications in SARS-CoV2 and type 1 diabetes” (Research Square, 2023)
Peptide text beside a SMILES is read from it.

Tests used:
rhACE2 [1] = molecular target: T1, rhACE2 (Homo sapiens, UniProt Q9BYF1); set-up: method as in PMID 26931059; details: 20 amino acid peptide from Bothrops asper myotoxin; cited from earlier work
T1 construct: purchased R&D systems

[2] = Stability of 2A in cell culture (HEK293), LCMS; assay type: in vitro ADME; details: peptide 9 μM, 60 min; for remaining at 1 h, 9 μM: human, HEK293 cells in culture, HEK293 cells 20,000 cells/well, Opti-MEM reduced serum media, mean ± SEM, read-out: amount remaining in the medium of HEK293 cells at T60 min compared with T0 min
Protocol: HEK293 (passage 24) were seeded into tissue-culture-grade 96-well plates at a density of 20,000 cells/well. After 24 h, cells were washed with PBS and replaced with Opti-MEM reduced serum media containing amidated or non-amidated 2A (9 μM). Aliquots of equal volume were taken at T = 0 and 60 min. Amidated 2A was added to control wells having media (no cells) only. Samples were immediately acidified in 0.1% TFA, snap frozen in dry ice and stored in −80 °C until analyzed by LCMS.
Samples were analyzed by LC-MS/MS on a Shimadzu Nexera uHPLC (Japan) coupled to a Triple Tof 5600 mass spectrometer (ABSCIEX, Canada) equipped with a duo electrospray ion source. One μl of each extract was injected onto a 2.1 mm × 100 mm Zorbax C18 1.8um column (Agilent) at 200 μL/min. Linear gradients of 1–50% solvent B over 7 min at 200 μL/min flow rate, followed by a steeper gradient from 50% to 98% solvent B in 1 min were used for peptide elution. Solvent B was held at 98% for 3 min for washing the column and returned to 1% solvent B for equilibration prior to the next sample injection. Solvent A consisted of 0.1% formic acid (aq) and solvent B contained 90/10 acetonitrile/ 0.1% formic acid (aq). The ionspray voltage was set to 5500 V, declustering potential (DP) 100 V, curtain gas flow 25, nebuliser gas 1 (GS1) 50, GS2 to 60, interface heater at 150 °C and the turbo heater to 500 °C. The mass spectrometer acquired 500ms full scan high resolution, at 30,000 resolving power, TOF-MS data over the mass range […].
Both amidated and non amidated 2A were quantified using the [M+2H]^2+ doubly charged molecular ion from m/z 575.32 to 575.37.
The data was acquired using Analyst TF 1.6 and quantification was carried out using MultiQuant 2.1.1 software (ABSCIEX, Canada).

[3] = Pharmacokinetics and tissue distribution of 2A in normal mice; details: LC-MS/MS
Protocol: Wild-type C57BL/6J mice (male, 10–12 weeks old) were purchased from the Animal Resources Centre (Western Australia, Australia). All animals were housed within the University of Queensland Biological Resources animal facility in a pathogen-free environment with a 12 h dark/12 h light cycle and free access to food and water.
The pharmacokinetic (PK) profile and biodistribution of 2A peptide was assessed in mice (n=5; per route at a dose of 1 mg/kg) after intravenous (i.v; tail vein), subcutaneous (s.c; between the shoulders) and intranasal (i.n; 10μl in each nostril with total volume of 20μl) administration. Blood samples were collected at 10, 20, 30, 45, 60 mins, 2 h and 4 h after drug administration via the tail vein using a microsampling technique[27]. At the terminal time point (24 h post administration), animals were anaesthetised with zolazepam (50 mg/kg) and xylazine (12 mg/kg) via i.p. injection. Blood samples were then collected via cardiac puncture as well as tail bleed to validate the sampling protocol. Plasma was isolated from blood samples by centrifugation (2000 g for 10 min at 4 °C), and stored at −80 °C. Following blood collection at the termination time point, mice were immediately perfused transcardially with saline to remove blood from tissues. Harvested tissue samples were then weighed and homogenized in an equal weight volume of milliQ water. On the day of analysis, aliquots (5 μL) of thawed plasma samples and 100μL of tissue homogenates were mixed with internal standard (10 μL) and processed for peptide quantification using a semi-validated LC–MS/MS method as described previously[28].
Quantification of 2A peptide was performed using AcF-[OPdChaWR] peptide as an internal standard as described previously[28]. […] Concentrations of 2A peptide in samples was measured against known concentration of internal standard and peak area ratio of analyte to internal standard. […]

rhACE2 [4] = molecular target: T1, rhACE2; assay: ACE2-dependent breakdown of angiotensin II and formation of angiotensin 1-7 by LCMS; assay type: biochemical; details: 2A 1.7 μM, n=4
Protocol: The effect of 2A on ACE2-mediated cleavage of angiotensin II was assessed using LCMS. rhACE2 (0.1 ng/μL) was incubated with 2A (1.7 μM) for 1 h at 37 °C. Angiotensin II (0.02 μg/μL) was then added. Aliquots of equal volumes were collected at T = 0, 3, 6 and 24-h. Aliquots were immediately acidified with trifluoroacetic acid (0.1% final). Samples were snap frozen in dry ice and lyophilized for analysis by LCMS.
Prior to loading, samples were reconstituted in 100 μL loading buffer. Samples were analysed using a quadrupole TOF mass spectrometer (MicroTOFq, Bruker Daltonics, Bremen, Germany) coupled online with a 1200 series nano HPLC (Agilent Technologies). Samples were loaded onto a zorbax 300SB reversed-phase trap column equilibrated with 95% buffer A (0.1% formic acid). The flow rate was set to 10 μL/min. The components were eluted over a 10 min gradient to 70% buffer B (80% acetonitrile, 0.1% formic acid) and peptides were separated on zorbax 300SB-C18 nano column (75 μm × 15 cm, 3.5 μm). The eluant was nebulised and ionised using the Bruker nano-ESI source with a capillary voltage of 4500 V, dry gas at 180° C, flow rate set at […] and nebuliser gas pressure at 300 mbar. The mass spectrometry acquisition was in selected ion monitoring mode after selected ion extraction of the mass spectrometry spectra. […]

[5] = Streptozotocin (STZ) model of type 1 diabetes in mice; assay type: in vivo, C57Bl/6J mice
Protocol: Streptozotocin (STZ; 150 mg/kg; i.p) was used to induce type 1 diabetes in male C57BI/6J mice. Blood glucose was measured 1 week post STZ injection to confirm the presence of diabetes (BG levels > 15 mmol/L at 1 week post STZ injection was included in this study). After establishment of diabetes (T0), mice were randomly allocated to receive 2A (1 mg/kg/ day; 10% DMSO in saline) or vehicle (10% DMSO in saline) via subcutaneous minipumps for a period 3 months. Non fasting blood glucose levels were measured every 2 weeks until study end (T3), and body weight was measured daily, until study end. 24-h urine samples were collected at 1 month intervals since commencement of 2A or its vehicle. (Detailed Methods section is provided at the end of the Discussion).
Streptozotocin (STZ) is a widely used model of type I diabetes which closely mimic the human disease[31],[32]. Male C57Bl/6J mice were purchased from Animal Resources Centre (Western Australia, Australia) and these mice were acclimatized for at least one week prior to inducing diabetes. […] Mouse body weight was measured daily. Blood glucose levels were measured via tail bleed 1-week post-STZ injection to confirm the establishment of diabetes (CareSens N; iSENS, Seoul, Korea). […] Blood glucose levels were measured every 2 weeks until the end of the treatment period. […]

SARS-CoV-2 = assay type: cell-based; details: 350 μM, pre-treated apically and basolaterally 1 h, then added every 12 h for 48 h; MOI 3; n=3 donors; versus PBS

T1 sequence (Q9BYF1 18-805): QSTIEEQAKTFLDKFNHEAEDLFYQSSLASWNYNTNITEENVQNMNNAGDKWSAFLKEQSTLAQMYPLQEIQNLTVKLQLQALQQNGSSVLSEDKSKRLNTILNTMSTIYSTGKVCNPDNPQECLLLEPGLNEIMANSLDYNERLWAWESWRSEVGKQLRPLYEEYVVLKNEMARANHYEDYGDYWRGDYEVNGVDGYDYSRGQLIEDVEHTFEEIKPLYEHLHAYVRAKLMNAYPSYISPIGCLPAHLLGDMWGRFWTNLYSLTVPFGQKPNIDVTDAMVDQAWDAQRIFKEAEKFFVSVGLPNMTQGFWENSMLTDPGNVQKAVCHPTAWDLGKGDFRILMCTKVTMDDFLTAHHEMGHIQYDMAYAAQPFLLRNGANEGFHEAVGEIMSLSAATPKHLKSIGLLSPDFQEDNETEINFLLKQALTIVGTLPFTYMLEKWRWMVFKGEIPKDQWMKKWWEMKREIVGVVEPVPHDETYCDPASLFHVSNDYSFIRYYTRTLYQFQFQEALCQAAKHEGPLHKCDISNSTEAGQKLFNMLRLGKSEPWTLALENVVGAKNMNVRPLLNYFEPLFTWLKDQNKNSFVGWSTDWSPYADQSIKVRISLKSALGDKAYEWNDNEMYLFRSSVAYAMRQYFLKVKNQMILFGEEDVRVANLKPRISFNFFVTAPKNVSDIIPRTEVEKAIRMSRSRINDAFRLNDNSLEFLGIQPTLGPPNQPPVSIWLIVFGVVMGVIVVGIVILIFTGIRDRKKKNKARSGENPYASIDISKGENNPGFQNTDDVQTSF

## 20 amino acid peptide: synthetic peptide corresponding to the first 20 amino acids of Bothrops asper myotoxin II
rhACE2 [1]
  effect on recombinant human ACE2 enzyme activity: stimulates recombinant human ACE2 enzyme activity

## CC[C@H](C)[C@H](NC(=O)[C@H](CCSC)NC(=O)[C@H](CCCCN)NC(=O)CNC(=O)[C@H](CC(C)C)NC(=O)[C@H](CCC(=O)O)NC(=O)[C@H](Cc1ccccc1)NC(=O)[C@H](CC(C)C)NC(=O)[C@@H](N)CO)C(=O)N[C@@H](CC(C)C)C(N)=O [2A] (H-SLFELGKMIL-NH2)
[2]
  remaining at 1 h, 9 μM: 54 ± 4%
[2]; media only (no cells), Opti-MEM, possible adherence to plastic
  amount remaining in the cell culture medium in the absence of cells at T60 min: 63 ± 14%
[3]; 1 mg/kg i.v., s.c. or i.n., C57BL/6J mice, n=5 per route
  detection in plasma 24 h post administration: a small amount of peptide was still detected
[3]; 1 mg/kg i.v., s.c. or i.n., C57BL/6J mice, plasma, n=5 per route
  clearance from the circulation: rapidly cleared from the circulation over the first 4h
[3]; 1 mg/kg, irrespective of the route (i.v., s.c., i.n.), tissue homogenates
  tissue distribution 24-h post administration (heart, lung, spleen, kidney, brain and spinal cord): detectable at low concentrations
rhACE2 [4]
  increase of Ang 1-7 levels in the presence of ACE2 + 2A compared to ACE2 alone: 165 ± 12%
rhACE2 [4]; over a 24-h period, ACE2 alone 58 ± 4%
  reduction of Ang II levels in the presence of ACE2 + 2A: 83 ± 5%
[5]; 2A 1 mg/kg/day, 3 months
  effects on organ weight: minimal effects
[5]; pre-clinical animal models of this paper
  untoward effects in animal models: did not observe any untoward effects

## N=C(N)c1ccc(/N=N/Nc2ccc(C(=N)N)cc2)cc1 [DIZE, diminazene]
SARS-CoV-2
  viral titres produced by epithelial cells at 48 hours post-infection: not significantly different

## CC[C@H](C)[C@H](NC(=O)[C@H](CCSC)NC(=O)[C@H](CCCCN)NC(=O)CNC(=O)[C@H](CC(C)C)NC(=O)[C@H](CCC(=O)O)NC(=O)[C@H](Cc1ccccc1)NC(=O)[C@H](CC(C)C)NC(=O)[C@@H](N)CO)C(=O)N[C@@H](CC(C)C)C(=O)O [non-amidated 2A] (H-SLFELGKMIL-OH; N-terminus assumed)
[2]
  remaining at 1 h, 9 μM: 29 ± 3%
